Assay results from patent EP4775574A1, “FURAN RING-CONTAINING COMPOUND, PHARMACEUTICAL COMPOSITION THEREOF, AND USE THEREOF” (Wuhan Xirui Pharmaceutical Technology Co., Ltd, priority 2023, dated 2025).
Read-outs that look alike come from different tables or passages of the source.

Biological target: T1, Nav1.8 sodium channel (Homo sapiens, UniProt Q9Y5Y9)
T1 construct: host or cells: CHO
Assay: Blocking activity against sodium channel 1.8 (Nav1.8), whole-cell patch-clamp, inhibition rate
Type: cell-based
Experimental: Experimental objective: The effects of the compounds on the current of the voltage-gated sodium channel (NaV) 1.8 subtype were detected by patch-clamp technique • 2. […] When the cells were detached from the bottom of the dish, about 5 mL of preheated complete medium at 37°C was added. The cell suspension was gently pipetted up and down to separate the aggregated cells. The cell suspension was transferred to a sterile centrifuge tube and centrifuged at 1000 rpm for 5 min to collect the cells. […] First, the voltage was stepped from -130 mV to -10 mV in 10 mV increments for 5 s, and then a 0 mV depolarizing pulse was applied to obtain the half-inactivation voltage (Vhalf). The resting state and half-inactivated state of the sodium current were detected by using a double-pulse protocol. First, the first depolarizing pulse (TP1) was applied to 0 mV for 50 ms to detect the sodium current in the resting state. Then, the voltage was adjusted to Vhalf and maintained for 5 s, followed by restoration of the voltage to -120 mV and maintenance for 20 ms, after which the second depolarizing pulse (TP2) was applied to 0 mV for 50 ms to detect the sodium current in the half-inactivated state. Finally, the voltage was restored to the clamping voltage of -120 mV. Data were repeatedly collected every […] to observe the effect of the drug on the peak values of sodium currents in the two different states. Experimental data were collected by the EPC 10 amplifier (HEKA) and stored in the PatchMaster (HEKA) software. • (2) During patch clamp operation, capillary glass tubes were first pulled into recording electrodes using a microelectrode puller, then the electrodes filled with intracellular solution were installed into the microelectrode holder. Under an inverted microscope, the micromanipulator was used to bring the recording electrode into contact with the cell, and negative pressure suction was applied to form a GΩ seal. At this time, fast capacitance compensation was performed, and then negative pressure was continuously applied to rupture the cell membrane and form the whole-cell recording mode. Finally, slow capacitance compensation was performed, and related parameters were recorded. Leak compensation was not applied. • (3) When the sodium current of whole-cell recording became stable, drug administration was started, and each drug concentration was applied for 5 min (or until the current became stable) before the next concentration was tested. The coverslip coated with cells was placed in the recording bath under an inverted microscope, and the blank control external solution and the test compound working solution were perfused through the recording bath in sequence from low concentration to high concentration by gravity, thereby acting on the cells, while a peristaltic pump was used for liquid exchange during recording. The current detected in the external solution without compounds for each cell was used as its own control group. Each concentration was independently tested twice. All electrophysiological experiments were conducted at room temperature.
First, the current after the effect of each drug concentration and the blank control current were normalized, then the inhibition rate corresponding to each drug concentration was calculated, that is, (1-Icompound /Icontrol), and the mean, standard deviation (SD), and standard error (SE) of the inhibition rate for each concentration were calculated, and the data were expressed as mean ± SE.

[1] = CHO cell line stably expressing Nav1.8, patch-clamp, test concentration not given

T1 sequence (Q9Y5Y9 whole entry): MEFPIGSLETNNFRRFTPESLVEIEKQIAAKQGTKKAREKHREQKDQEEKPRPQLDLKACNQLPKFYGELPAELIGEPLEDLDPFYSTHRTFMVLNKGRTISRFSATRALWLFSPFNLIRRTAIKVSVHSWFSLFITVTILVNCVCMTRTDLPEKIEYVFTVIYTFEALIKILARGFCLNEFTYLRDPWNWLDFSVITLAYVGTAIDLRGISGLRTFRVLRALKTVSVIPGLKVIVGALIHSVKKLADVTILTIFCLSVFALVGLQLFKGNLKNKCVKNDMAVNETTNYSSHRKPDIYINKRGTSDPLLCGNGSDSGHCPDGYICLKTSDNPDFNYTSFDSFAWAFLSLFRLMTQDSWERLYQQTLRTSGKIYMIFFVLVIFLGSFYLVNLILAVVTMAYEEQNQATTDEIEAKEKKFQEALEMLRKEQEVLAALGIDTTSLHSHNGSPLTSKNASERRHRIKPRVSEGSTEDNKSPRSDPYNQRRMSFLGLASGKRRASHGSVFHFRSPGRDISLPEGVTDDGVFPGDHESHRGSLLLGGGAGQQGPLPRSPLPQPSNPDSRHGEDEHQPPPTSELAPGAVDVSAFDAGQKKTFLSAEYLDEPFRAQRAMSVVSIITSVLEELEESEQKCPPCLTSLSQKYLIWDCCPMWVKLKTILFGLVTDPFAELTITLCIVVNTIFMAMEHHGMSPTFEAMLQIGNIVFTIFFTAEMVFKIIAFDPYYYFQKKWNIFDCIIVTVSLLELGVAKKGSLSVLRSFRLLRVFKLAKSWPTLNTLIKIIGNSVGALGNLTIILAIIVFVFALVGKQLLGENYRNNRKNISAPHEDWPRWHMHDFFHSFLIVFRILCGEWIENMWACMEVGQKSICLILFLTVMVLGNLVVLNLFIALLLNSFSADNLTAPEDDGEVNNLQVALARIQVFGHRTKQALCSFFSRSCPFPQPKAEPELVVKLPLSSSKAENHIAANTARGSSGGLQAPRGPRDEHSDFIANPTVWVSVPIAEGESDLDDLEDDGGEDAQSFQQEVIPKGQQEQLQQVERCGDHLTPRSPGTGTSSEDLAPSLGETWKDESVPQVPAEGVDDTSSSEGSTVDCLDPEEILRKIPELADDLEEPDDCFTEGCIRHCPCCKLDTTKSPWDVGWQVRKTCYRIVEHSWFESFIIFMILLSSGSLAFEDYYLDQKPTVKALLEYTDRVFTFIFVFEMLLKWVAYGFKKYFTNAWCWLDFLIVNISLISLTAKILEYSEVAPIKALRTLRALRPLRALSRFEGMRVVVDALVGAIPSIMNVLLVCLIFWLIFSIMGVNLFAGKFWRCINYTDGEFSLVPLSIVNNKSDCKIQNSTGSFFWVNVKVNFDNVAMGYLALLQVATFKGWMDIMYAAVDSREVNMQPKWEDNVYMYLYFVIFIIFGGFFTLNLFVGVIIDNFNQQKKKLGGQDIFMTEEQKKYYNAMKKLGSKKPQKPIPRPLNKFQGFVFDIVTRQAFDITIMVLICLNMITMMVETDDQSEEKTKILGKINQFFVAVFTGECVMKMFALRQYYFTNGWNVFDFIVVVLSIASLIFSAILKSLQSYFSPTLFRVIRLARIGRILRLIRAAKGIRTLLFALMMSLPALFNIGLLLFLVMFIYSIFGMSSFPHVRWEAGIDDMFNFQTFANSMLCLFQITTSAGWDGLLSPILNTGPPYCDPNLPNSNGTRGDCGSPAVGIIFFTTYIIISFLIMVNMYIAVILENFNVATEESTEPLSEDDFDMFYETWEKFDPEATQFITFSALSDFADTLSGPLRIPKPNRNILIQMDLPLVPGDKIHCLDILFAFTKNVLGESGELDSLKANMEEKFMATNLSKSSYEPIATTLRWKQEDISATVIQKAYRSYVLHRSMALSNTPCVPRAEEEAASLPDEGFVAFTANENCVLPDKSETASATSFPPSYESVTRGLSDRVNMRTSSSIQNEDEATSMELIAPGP

| SMILES | Inhibition rate (%) | Inhibition rate (%) [1] [%] |
| --- | --- | --- |
| CONC(=O)c1cc(NC(=O)[C@@H]2O[C@@](C)(C(F)(F)F)[C@@H](C)[C@H]2c2ccc(F)c(F)c2OC)ccn1 [Example 1] | – | 80.08 |
| CCONC(=O)c1cc(NC(=O)[C@@H]2O[C@@](C)(C(F)(F)F)[C@@H](C)[C@H]2c2ccc(F)c(F)c2OC)ccn1 [Example 2] | 76.36 | – |
| COc1c([C@H]2[C@H](C(=O)Nc3ccnc(C(=O)NN)c3)O[C@@](C)(C(F)(F)F)[C@H]2C)ccc(F)c1F [Example 5] | 50.04 | – |
| CNNC(=O)c1cc(NC(=O)[C@@H]2O[C@@](C)(C(F)(F)F)[C@@H](C)[C@H]2c2ccc(F)c(F)c2OC)ccn1 [Example 6] | – | 71.63 |
| COc1c([C@H]2[C@H](C(=O)Nc3ccc(F)c(C(=O)NO)c3)O[C@@](C)(C(F)(F)F)[C@H]2C)ccc(F)c1F [Example 9] | 97.24 | – |
| COc1c(C2C(C(=O)Nc3ccc(F)c(C(=N)NC#N)c3)OC(C)(C(F)(F)F)C2C)ccc(F)c1F (centres unmarked) [Example 16] | 95.94 | – |

Second part, led by results:

| Inhibition rate (%) | SMILES | Inhibition rate (%) [1] [%] |
| --- | --- | --- |
| 90.96 | COc1c([C@H]2[C@H](C(=O)Nc3cc[n+]([O-])c(C(=N)NO)c3)O[C@@](C)(C(F)(F)F)[C@H]2C)ccc(F)c1F [Example 8] | – |
| 76.58 | COc1c([C@H]2[C@H](C(=O)Nc3ccc(C(F)(F)F)c(C(=N)NO)c3)O[C@@](C)(C(F)(F)F)[C@H]2C)ccc(F)c1F [Example 12] | – |
| 89.85 | COc1c([C@H]2[C@H](C(=O)Nc3cc(F)c(F)c(C(=N)NO)c3)O[C@@](C)(C(F)(F)F)[C@H]2C)ccc(F)c1F [Example 13] | – |
| 84.01 | COc1c([C@H]2[C@H](C(=O)Nc3cc(C(=N)NO)c(F)cc3F)O[C@@](C)(C(F)(F)F)[C@H]2C)ccc(F)c1F [Example 14] | – |
| 56.23 | COc1c([C@H]2[C@H](C(=O)Nc3ccc(F)c(C(=N)NO)c3F)O[C@@](C)(C(F)(F)F)[C@H]2C)ccc(F)c1F [Example 15] | – |
